Experimental data published in patent publication US11541032B2, “Composition containing sumo inhibitor and application” (CHINA PHARMACEUTICAL UNIVERSITY, priority 2018, dated 2023).

Key:
Assay type in all cases: cell-based, Rat
[1] = system: activated HSCs (HSC-T6 cells); experiment: RT-PCR of fibrotic-related gene Acta2 mRNA in activated HSCs; settings: after administration of SP
Protocol: (§1) HSC-T6 cells, seeded and cultured in a proper density, were treated with TGF-β([…]) or OCA (5 μM) or GW40064 (5 μM) or WAY-362450 (5 μM) for 12 h before collection.
(§2) RNA solutions and kit components were prepared into a system with a total volume of 20 μl according to a system proportion required in the specification, and a program temperature was set for reverse transcription.
(§3) Stage 2: PCR reaction at 95° C. for 15 sec; for example, at 60° C. for 30 sec for 40 Cycles; and at 72° C. for 30 sec.
(§4) Specific methods were the same as those in section 2.1 in Embodiment 1.
(§5) Specific methods were the same as those in section 2.2 in Embodiment 1.

FXR signaling pathway = experiment: RT-PCR of FXR target gene Shp mRNA in quiescent and TGF-β-activated HSC-T6 cells; settings: for mRNA expression of Shp: activated HSCs, in the presence of SUMO inhibitor SP; for mRNA level of Shp: activated state (TGF-β1 incubation) HSC-T6 cells; for mRNA level of Shp / mRNA level of Shp, an FXR target gene: agonist 5 μM, 12 h; for mRNA level of Shp, an FXR target gene: quiescent HSC-T6 cells
Protocol: as §1
1) After the cells were cleaned by PBS, 800 μl of a Trizol reagent was added. After repeated blowing by a pipette, the cells were transferred into an EP tube to be subjected to still standing for 5 min at the room temperature.
2) 160 μl of chloroform was added, and violent oscillation was performed for 15 sec. After still standing for 5 min at the room temperature, 12000 g centrifugation was performed for 15 min. The sample was divided into three layers including a bottom layer being a yellow organic phase, an upper layer being a colorless water phase, and a middle layer.
3) 300 μl of the upper layer water phase was carefully transferred into a new tube. 300 μl of isopropanol was added. After uniform mixing through reversing, still standing was performed for 10 min at the room temperature. Then, 12000 g centrifugation was performed for 10 min. Supernatant was abandoned.
4) RNA precipitates were washed by 1.0 ml of precooled 75% ethanol. Then, 12000 g centrifugation was performed for 5 min. Supernatant was abandoned to obtain total RNA. Redissolution was performed by 10 μl of DEPC water. After quantification, dilution was performed to 0.5 μg/μl.
as §2
Stage 1: reverse transcription at 37° C. for 15 min.
Stage 2: denaturation at 85° C. for 5 s.
Stage 1: initial denaturation at 95° C. for 1 min.
as §3
Stage 3: dissociation curve analysis at 65 to 95° C., 0.5° C./5s.
as §4, §5

FXR proteins = experiment: SUMOylation ELISA of FXR proteins in activated HSCs
Protocol: as §1
After cell nuclear proteins were extracted according to specification requirements of an ELISA detection kit, primary antibodies and nuclear proteins of a cell sample were incubated for 60 min at the room temperature in a plate hole. SUMO specific detection antibodies were then supplemented and added according to the specification requirements. A color sensitizer was further added for color development. Then, absorbance at 655 nm was fast read. Relative quantitative analysis was performed.
as §4
Specific methods were the same as those in section 2.3 in Embodiment 1.

| Compound | expression of fibrotic-related gene Acta2 [1] | mRNA expression of Shp (FXR signaling pathway) | mRNA level of Shp (FXR signaling pathway) | mRNA level of Shp, an FXR target gene (FXR signaling pathway) | SUMOylation level of FXR proteins (FXR proteins) |
| --- | --- | --- | --- | --- | --- |
| CC(C)c1onc(-c2c(Cl)cccc2Cl)c1COc1ccc(/C=C/c2cccc(C(=O)O)c2)c(Cl)c1 [GW4064] | significantly reduced | significantly up-regulated | none of the FXR agonists OCA, GW4064 and WAY-362450 could significantly up-regulate | could significantly up-regulate | – |
| CN[C@@H]1[C@H](O)[C@H](NC)[C@H]2O[C@@]3(O)C(=O)C[C@@H](C)O[C@H]3O[C@@H]2[C@H]1O [SP, spectinomycin] | – | – | – | – | could significantly reduce |
| CC(C)OC(=O)C1=CN(C(=O)c2ccc(F)c(F)c2)CC(C)(C)c2c1[nH]c1ccccc21 [WAY-362450] | significantly reduced | significantly up-regulated | none of the FXR agonists OCA, GW4064 and WAY-362450 could significantly up-regulate | could significantly up-regulate | – |
| ginkgolic acid [GA] | – | – | – | – | could significantly reduce |
